Data: patent US12527754B2, “Methods and compositions for preventing and treating metabolic syndrome induced by antipsychotic treatment and related diseases and conditions” (Tufts Medical Center, Inc., priority 2018, dated 2026)

Key:
[1] = C57BL female mice, N = 10; end of 10-week treatment
Method: (§1) C57BL female mice (n=10 mice in each group) were treated with olanzapine (4 mg/kg, po) (control) or with a combination of olanzapine (4 mg/kg, po) and benserazide (100 mg/day, po), 5 days per week for 10 weeks.
(§2) Body weight was checked two times per week. Glucose tolerance, a marker of IR, was determined by a glucose tolerance test (GTT) at the end of the study (day 71). In addition, blood samples were analyzed for cholesterol (total) and triglycerides.

[2] = GTT at day 71; C57BL female mice, N = 10
Method: as §1, §2

[3] = MetS induced by high-fat diet (HFD) in mice; type: in vivo; conditions: C57Bl/j male mice on HFD, benserazide 50 mg/day p.o., 12 weeks
Method: In other experiments, we conducted a pre-clinical trial of benserazide on the development of MetS induced by high-fat diet (HFD). HFD was fed to C57Bl/j male mice (6 weeks of age). Benserazide, 50 mg/day, p.o., was administered for 12 weeks (five days/week). Differences (p<0.05) were considered as statistically significant (Mann-Whitney two-tailed test).

SMILES: Cc1cc2c(s1)Nc1ccccc1N=C2N1CCN(C)CC1 [Olanzapine]
- Body weight, Day 1 (C57BL female mice, n = 10, olanzapine 4 mg/kg po with or without benserazide 100 mg/day po, 5 days per week for 10 weeks, Day 1): 17.4 ± 0.13
- Body weight, Day 71 (C57BL female mice, n = 10, olanzapine 4 mg/kg po with or without benserazide 100 mg/day po, 5 days per week for 10 weeks, Day 71): 34.0 ± 0.09
- Cholesterol (total, blood) [1]: 172.33 ± 4.536
- Triglycerides (blood) [1]: 151.00 ± 5.37
- Glucose levels 90 minutes after ingestion of sugar [2]: 520.55 ± 15.63
- Glucose levels baseline (before ingestion of sugar) [2]: 183.25 ± 10.49

SMILES: NC(CO)C(=O)NNCc1ccc(O)c(O)c1O (centres unmarked) [Benserazide, seryl-(2,3,4-trihydroxybenzyl)-hydrazide]
- Effect on weight gain induced by olanzapine (benserazide 100 mg/day po with olanzapine 4 mg/kg po, 10 weeks, result in words): attenuated weight gain
- Elevation of blood cholesterol induced by HFD, change ([3]; five days/week): −17%
- Elevation of triglycerides induced by HFD, change ([3]; five days/week): −25%
- Excessive weight gain induced by HFD, change ([3]; five days/week): −40%
- Glucose tolerance impairment induced by HFD ([3]; result in words): attenuated
